Here are results for 1 compound from patent US11559527B2 (priority 2017, dated 2023).

SMILES strings stand for the structures. A value given as a limit tells only on which side of the number the result lay.

What all share (format): cell-based, Human
One data set has as its system Wnt signaling. The experiment in a line: Luciferase reporter assay MCF7-GFP-TCF/LEF(luc). Conditions: 50 μM, 2 and 5 days. From the text:
(§1) Mitochondrial fusion and fission may also have an impact in signaling pathways that regulate stem cell proliferation and survival. […] A range of reporter MCF7-GFP cell lines were generated, including MCF7-GFP-GLI(luc), MCF7-GFP-Rbp/Jk(luc), MCF7-GFP-SMAD(luc) and MCF7-GFP-TCF/LEF(luc), to assess Hedgehog signaling, Notch signaling, TGFβ signaling, and Wnt signaling, respectively. […] The data is shown in the four data plots in FIG. 9.
(§2) LUCIFERASE ASSAY: The Cignal Lenti reporter assay (luc) was used to monitor the activity of several signalling pathways in MCF7-GFP cells as explained previously. Luciferase Assay System (E1501, Promega) was performed according to manufacturer's instructions. 1×10^4 MCF7 […] were seeded in black-walled 96 well plates. When cells were attached, drug treatments were added for 18, 48 hours and 5 days. After treatment, Luciferase Assay was performed according to manufacturer's instructions and light signal was acquired in the Xenogen VivoVision IVIS Lumina. Results were normalized by SRB staining of cells grown in 96-well plates in parallel.
(§3) SULFORHODAMINE B (SRB) ASSAY: SRB (S9012, Sigma) measures total biomass by staining cellular proteins. […] Absorbance was spectrophotometrically measured at 562 nm in a FluoStar Omega plate reader (BMG Labtech). […]

For the next data set, the system named is TGFβ signaling. The data set can be described thus: Luciferase reporter assay MCF7-GFP-SMAD(luc). To be noted: 50 μM, 2 and 5 days.
Description: as §1, §2, §3

Another data set has as its system Notch signaling. The experiment in a line: Luciferase reporter assay MCF7-GFP-Rbp/Jk(luc). Conditions: 50 μM, 2 and 5 days.
Description: as §1, §2, §3

Data set [1] can be described thus: PrestoBlue viability assay. To be noted: human, MCF7 breast cancer cells, read-out: reduction of MCF7 cell viability. On the procedure:
(§4) The inventors sought to evaluate whether mDIVI-1-induced inhibition of DRP1 has repercussion on the viability of MCF7 cells. […] Similar results were obtained using the Bradford assay, which measures protein content, as an indicator of cell viability.
(§5) CELL CULTURE: Human MCF7 breast cancer cells were purchased from ATCC and maintained in complete media: DMEM (D6546, Sigma) supplemented with 10% fetal bovine serum (F7524, Sigma), 100 units/ml of penicillin, 100 μg/ml, streptomycin (P0781, Sigma) and 1% Glutamax (#35050087, Life Technologies). For all experiments, cells were incubated in a 5% CO2 atmosphere at 37° C.
(§6) PRESTOBLUE VIABILITY ASSAY: Cell viability was measured using the resazurin-based PrestoBlue reagent (A-13261, ThermoFisher Scientific). Briefly, 5×10^3 MCF7 cells were seeded into 96-well black plates. When cells were attached mDIVI-1 or vehicle were added to the cells. After 2 or 5 days, PrestoBlue reagent was added to the cells and incubated for 2 hours. Plates were finally read using a FluoStar Omega plate reader (BMG Labtech) at an excitation wavelength of 544 and an emission wavelength of 590 nm. Background measurements were subtracted from all values.

Data set [2] relates to MCF7 cells. The data set can be described thus: PrestoBlue viability assay. Conditions: 10 μM, 48 hours. The procedure:
as §4, §5, §6

The subject of data set [3] is MCF7 cells. The experiment in a line: Mitochondrial staining with Mitotracker Deep Red (microscopy). To be noted: 10 μM, 2- and 5-day treatment. From the text: In order to assess whether the inhibition of DRP1 was actually being translated into a reduction in mitochondrial fission, the inventors stained the mitochondria of MCF7 cells with Mitotracker Deep Red, which is a marker of mitochondrial mass. […] The original images are black background with shades of red over the cells, whereas the images in FIG. 3 have been color-inverted and generated in grey scale. Mitochondrial mass was also quantified by flow cytometry. FIGS. 4A-4C show results of mitochondrial mass quantification. In FIG. 4A, Mitotracker Deep Red mean intensity relative to vehicle intensity is shown for 2-day and 5-day treatments.
MITOCHONDRIAL STAINING: One hundred thousand MCF7 cells were seeded onto coverslips in 12-well plates. When cells were attached, mDIVI-1 and vehicle treatments were performed in triplicate. After 2 days and 5 days, mitochondria were labeled by incubating cells for 15 min at 37° C. with 25 nM of MitoTracker DeepRed (M22426, Invitrogen) diluted in PBS (D8662, Sigma). Then, cells were washed with PBS, fixed in 2% paraformaldehyde (28908, Thermo Scientific) in PBS for 30 minutes at room temperature and mounted with ProLong® Gold Antifade Mountant reagent with DAPI (P36935, Invitrogen, Inc.). […]

The subject of another data set is MCF7 breast cancer cells. The experiment in a line: Tumorsphere formation assay, MCF7. To be noted: five days, vs vehicle. The procedure: One of the gold standard techniques for the study and identification of CSCs is the sphere formation assay, an in vitro culture system that enriches for CSCs. Under these anchorage-independent culture conditions, CSCs preferentially form the so-called tumorspheres, whereas more differentiated cells die rapidly.
TUMORSPHERE FORMATION ASSAY: A single cell suspension was prepared using enzymatic (1× Trypsin-EDTA, T3924, Sigma Aldrich), and manual disaggregation (25 gauge needle). […] After 5 days of culture in a humidified incubator at 37° C., tumorspheres bigger than 50 μm were counted using an eye piece graticule.

As for `COc1cc(-n2c(S)nc3ccccc3c2=O)c(Cl)cc1Cl` [mDIVI-1, 3-(2,4-Dichloro-5-methoxyphenyl)-2-sulfanyl-4(3H)-quinazolinone], in the data set with Wnt signaling, the “Wnt/TCF pathway luciferase activity” value is recorded as “inhibition”. In the data set on TGFβ signaling, the “TGFβ/SMAD pathway luciferase activity” value is recorded as “inhibition”. Also, the “Notch/Rbp pathway luciferase activity” value in the data set on Notch signaling is listed as “inhibition”. Further, the cytotoxicity at 5 days, 10 μM in data set [1] (10 μM, five days) stood at 20%. Moreover, the cytotoxicity at 48 h, 50 μM in data set [1] (50 μM, 48 hours) was 20%. Moreover, the cytotoxicity at 5 days, 50 μM in data set [1] (50 μM, five days) is over 65%. For the same compound, in data set [1] (100 μM, 48 hours), the cytotoxicity at 48 h, 100 μM stood at 20%. Besides, in data set [1] (100 μM, five days), the cytotoxicity at 5 days, 100 μM was 85%. The “viability of MCF7 cells” value in the data set on MCF7 cells [2] was “did not decrease”. The mitochondrial morphology entry in the data set with MCF7 cells [3] is “more interconnected mitochondria”. Moreover, the “decrease of tumorsphere number” value in the data set with MCF7 breast cancer cells (MCF7, 10 μM) worked out at 50%; in the data set on MCF7 breast cancer cells (MCF7, 50 μM) it was 80%; with MCF7 breast cancer cells (MCF7, 100 μM) it was 95%.
